Measured values reported in the NIST ThermoML archive (doi:10.1007/s10765-009-0651-x).
Numbers after ± are expanded uncertainties.

Legend:
[1] = wn = mass fraction of the nth substance listed; conditions: 101 kPa, Liquid

Cn1cc[n+](C)c1.[Cl-] [1,3-dimethylimidazolium chloride]
Conditions	Normal melting temperature [°C]
Crystal, visual observation	126.00 ± 4

Cn1cc[n+](C)c1.[Cl-] [1,3-dimethylimidazolium chloride] + O
mass density [kg/m3], [1]
Conditions	w2 = 0.2004	w2 = 0.3015	w2 = 0.4019	w2 = 0.5001	w2 = 0.5992	w2 = 0.7003	w2 = 0.8003	w2 = 0.898
293.15 K	1157.78 ± 1.6	1135.29 ± 1.4	1111.77 ± 1.2	1089.04 ± 1.1	1067.56 ± 0.94	1047.52 ± 0.81	1030.53 ± 0.7	1014.07 ± 0.59
298.15 K	1154.79 ± 1.5	1132.4 ± 1.4	1109.03 ± 1.2	1087.14 ± 1.1	1065.77 ± 0.93	1045.81 ± 0.8	1027.98 ± 0.68	1012.2 ± 0.58
303.15 K	1152.15 ± 1.5	1129.93 ± 1.4	1106.69 ± 1.2	1084.55 ± 1.1	1063.34 ± 0.92	1043.7 ± 0.78	1026.15 ± 0.67	1010.57 ± 0.57
308.15 K	1149.31 ± 1.5	1127.15 ± 1.3	1104.22 ± 1.2	1082.68 ± 1.1	1061.63 ± 0.91	1041.8 ± 0.77	1024.53 ± 0.66	1008.86 ± 0.56
313.15 K	1146.46 ± 1.5	1124.33 ± 1.3	1101.07 ± 1.2	1080.38 ± 1	1059.44 ± 0.89	1039.52 ± 0.76	1022.66 ± 0.65	1007.2 ± 0.55
318.15 K	1143.59 ± 1.5	1121.85 ± 1.3	1098.34 ± 1.1	1078.58 ± 1	1057.08 ± 0.88	1037.12 ± 0.74	1021.05 ± 0.64	1005.65 ± 0.54

CC#N [acetonitrile]
Conditions	mass density [kg/m3]
308.1 K, 101.33 kPa, Liquid, Vibrating tube method	765.98 ± 4.2
